In US20100190755A1, “TETRACYCLINE COMPOUNDS FOR THE TREATMENT OF RHEUMATOID ARTHRITIS AND RELATED METHODS OF TREATMENT” (priority 2008, published 2010):
Converted amounts (≈) assume the structure as drawn.

Assays:
S. aureus RN450 = test: Antibacterial activity MIC, Gram+ (Table 9); type: cell-based; conditions: Staphylococcus aureus, CAMHB, 35° C., approximately 18 hr
Method: (§1) 2 mg of each compound is dissolved in 100 μl of DMSO. The solution is then added to cation-adjusted Mueller Hinton broth (CAMHB), which results in a final compound concentration of 200 μg per ml. The tetracycline compound solutions are diluted to 50 μL volumes, with a test compound concentration of 0.098 μg/ml. Optical density (OD) determinations are made from fresh log-phase broth cultures of the test strains. Dilutions are made to achieve a final cell density of 1×10^6 CFU/ml. At OD=1, cell densities for different genera should be approximately:
(§2) 50 μl of the cell suspensions are added to each well of microtiter plates. The final cell density should be approximately 5×10^5 CFU/ml. These plates are incubated at 35° C. in an ambient air incubator for approximately 18 hr. The plates are read with a microplate reader and are visually inspected when necessary. The MIC is defined as the lowest concentration of the tetracycline compound that inhibits growth.

E. coli 25922 = test: Antibacterial activity MIC, Gram- (Table 9); type: cell-based; conditions: Escherichia coli, CAMHB, 35° C., approximately 18 hr
Method: as §1, §2

[1] = tested on: collagen-induced arthritis (CIA) in male DBA/1 mice; test: CIA model, Example 3 (cumulative scores vs untreated controls); type: in vivo; conditions: Mus musculus
Method: The CIA model data were acquired according to the following protocol: • 1. Male DBA/1 mice were anaesthetized by i.p. injection of ketamine/xylazine (1.25 mg/ml:0.25 mg/ml, 100 μl/mouse). • 2. Anaesthetized mice were immunized intradermally at the base of the tail with 0.1 or 0.2 ml of an emulsion composed of 100 or 200 μg bovine type II collagen in Complete Freund's Adjuvant (50 μl/spot x 2 or 4 spots). • 3. At day 21 after the immunization, mice received an intradermal boost of 100 μl of an emulsion composed of 100 μg bovine type II collagen in Incomplete Freund's Adjuvant (50 μl/spot x 2 spots) • 4. After onset of disease symptoms (usually 3-4 days after boost), tetracycline derivatives were administered daily into mice via intraperitoneal or oral routes for 8 to 15 days. Methotrexate (12 mg/kg/day) or dexmethasone (4 mg/kg/day) was used as a control for inflammation suppression. • 5. The disease severity was scored daily for 8-15 days after the appearance of the symptoms. Disease severity was graded as following: • a. Visual clinical score for the presence of inflammation in the fingers/toes of the forepaws and hindpaws: • 1. Erythema and mild swelling confined to the mid-foot (tarsals) or ankle joint • 2. Erythema and mild swelling extending from the ankle to the mid-foot • 3. Erythema and moderate swelling extending from the ankle to the metatarsal joints • 4. Erythema and severe swelling encompassing the ankle, foot, and digits. • b. Clinical swelling score for the presence of paw edema in the forepaws and hindpaws: • Paw thickness was measured daily by an engineering micrometer after isofluorane inhalation or ketamine/xylazine (1.25 mg/ml:0.25 mg/ml, 100 μl/mouse) i.p. injection.
Daily scores and paw swelling measurements for each treatment group of mice were added over the total observation period to obtain a cumulative score. Cumulative scores were compared between untreated controls and treated groups to determine tetracycline-induced inhibition.

| SMILES | MIC (S. aureus RN450) | MIC (E. coli 25922) | inhibition in vivo at 25 mg/kg [1] | inhibition in vivo at 6 mg/kg ([1]; Dose 6 mg/kg) | inhibition in vivo at 12 mg/kg [1] |
| --- | --- | --- | --- | --- | --- |
| Cc1ccc(N(C)C)c2c1C(=O)C1=C(O)[C@]3(O)C(=O)C(C(N)=O)=C(O)C[C@@H]3C[C@@H]1C2 [AY] | 8 µg/mL (≈ 19.4 µM) | > 64 µg/mL | 38% |  |  |
| CN(C)c1cc(C(=O)O)c(O)c2c1C[C@H]1C[C@H]3CC(O)=C(C(N)=O)C(=O)[C@@]3(O)C(O)=C1C2=O [U] | > 64 µg/mL | > 64 µg/mL | 50% |  |  |
| CN(C)c1ccc(O)c2c1C[C@H]1C[C@H]3CC(O)=C(C(N)=O)C(=O)[C@@]3(O)C(O)=C1C2=O [F] |  |  | 55% |  |  |
| CN(C)c1cc(-c2ccc(C(N)=O)cc2)c(O)c2c1C[C@H]1C[C@H]3[C@H](N(C)C)C(O)=C(C(N)=O)C(=O)[C@@]3(O)C(O)=C1C2=O [S] | > 64 µg/mL | > 64 µg/mL | 46% |  |  |
| CCCc1cc(N(C)C)c2c(c1O)C(=O)C1=C(O)[C@]3(O)C(=O)C(C(N)=O)=C(O)[C@@H](N(C)C)[C@@H]3C[C@@H]1C2 [E] | 2 µg/mL (≈ 4 µM) | > 64 µg/mL | 44% |  |  |
| CCCNC(=O)c1cc(N(C)C)c2c(c1O)C(=O)C1=C(O)[C@]3(O)C(=O)C(C(N)=O)=C(O)C[C@@H]3C[C@@H]1C2 [V] | 2 µg/mL (≈ 4 µM) | > 64 µg/mL | 43% |  |  |
| COc1cc(-c2ccc(O)c3c2C[C@H]2C[C@H]4[C@H](N(C)C)C(O)=C(C(N)=O)C(=O)[C@@]4(O)C(O)=C2C3=O)cc(OC)c1OC [Compound D] |  |  | 27% |  |  |
| Cc1cc(N(C)C)c2c(c1O)C(=O)C1=C(O)[C@]3(O)C(=O)C(C(N)=O)=C(O)C[C@@H]3C[C@@H]1C2 [AM] | 2 µg/mL (≈ 4.67 µM) | > 64 µg/mL | 73% | 36% | 66% |
| CO/N=C(\C)c1cc(N(C)C)c2c(c1O)C(=O)C1=C(O)[C@]3(O)C(=O)C(C(N)=O)=C(O)[C@@H](N(C)C)[C@@H]3C[C@@H]1C2 [K] | 4 µg/mL (≈ 7.57 µM) | > 64 µg/mL | 30% |  |  |
| CC(=O)c1ccc(O)c2c1C[C@H]1C[C@H]3CC(O)=C(C(N)=O)C(=O)[C@@]3(O)C(O)=C1C2=O [BC] | 4 µg/mL (≈ 9.68 µM) | > 64 µg/mL | 72% |  |  |
| CN(C)c1cc(C(=O)OCCO)c(O)c2c1C[C@H]1C[C@H]3CC(O)=C(C(N)=O)C(=O)[C@@]3(O)C(O)=C1C2=O [AK] | > 64 µg/mL | > 64 µg/mL | 24% |  |  |
| CO/N=C(/C)c1cc(N(C)C)c2c(c1O)C(=O)C1=C(O)[C@]3(O)C(=O)C(C(N)=O)=C(O)C[C@@H]3C[C@@H]1C2 [AD] | 2 µg/mL (≈ 4.12 µM) | > 64 µg/mL | 30% |  |  |
| CC(=O)c1cc(N(C)C)c2c(c1O)C(=O)C1=C(O)[C@]3(O)C(=O)C(C(N)=O)=C(O)C[C@@H]3C[C@@H]1C2 [Compound T] | 4 µg/mL (≈ 8.76 µM) | > 64 µg/mL | 44% |  | 10% |
| COCCOC(=O)c1cc(N(C)C)c2c(c1O)C(=O)C1=C(O)[C@]3(O)C(=O)C(C(N)=O)=C(O)C[C@@H]3C[C@@H]1C2 [AO] | 16 µg/mL (≈ 31 µM) | > 64 µg/mL | 52% |  |  |
| CCOC(=O)c1cc(N(C)C)c2c(c1O)C(=O)C1=C(O)[C@]3(O)C(=O)C(C(N)=O)=C(O)C[C@@H]3C[C@@H]1C2 [AA] | 2 µg/mL (≈ 4.11 µM) | > 64 µg/mL | 41% |  |  |
| CN(C)c1cc(-c2ncco2)c(O)c2c1C[C@H]1C[C@H]3CC(O)=C(C(N)=O)C(=O)[C@@]3(O)C(O)=C1C2=O [X] | 2 µg/mL (≈ 4.15 µM) | > 64 µg/mL | 40% |  |  |
| CCO/N=C(\C)c1cc(N(C)C)c2c(c1O)C(=O)C1=C(O)[C@]3(O)C(=O)C(C(N)=O)=C(O)[C@@H](N(C)C)[C@@H]3C[C@@H]1C2 [Z] | 4 µg/mL (≈ 7.37 µM) | > 64 µg/mL | 32% |  |  |
| CN(C)c1cc(-c2ncco2)c(O)c2c1C[C@H]1C[C@H]3[C@H](N(C)C)C(O)=C(C(N)=O)C(=O)[C@@]3(O)C(O)=C1C2=O [O] | 32 µg/mL (≈ 61 µM) | > 64 µg/mL | 26% |  |  |
| C=CCc1cc(N(C)C)c2c(c1O)C(=O)C1=C(O)[C@]3(O)C(=O)C(C(N)=O)=C(O)[C@@H](N(C)C)[C@@H]3C[C@@H]1C2 [I] |  |  | 29% |  |  |

Continued by falling MIC (S. aureus RN450), values first:

| MIC (S. aureus RN450) | MIC (E. coli 25922) | SMILES | inhibition in vivo at 25 mg/kg [1] | inhibition in vivo at 6 mg/kg ([1]; Dose 6 mg/kg) | inhibition in vivo at 12 mg/kg [1] |
| --- | --- | --- | --- | --- | --- |
| 1 µg/mL (≈ 2.04 µM) | > 64 µg/mL | CN(C)c1cc(-c2ccccc2)c(O)c2c1C[C@H]1C[C@H]3CC(O)=C(C(N)=O)C(=O)[C@@]3(O)C(O)=C1C2=O [AN] | 65% |  | 49% |
| 1 µg/mL (≈ 2.13 µM) | > 64 µg/mL | CCC(=O)c1cc(N(C)C)c2c(c1O)C(=O)C1=C(O)[C@]3(O)C(=O)C(C(N)=O)=C(O)C[C@@H]3C[C@@H]1C2 [AL] | 62% |  | 31% |
| 1 µg/mL (≈ 2.02 µM) | > 64 µg/mL | CN(C)c1cc(-c2ccnn2C)c(O)c2c1C[C@H]1C[C@H]3CC(O)=C(C(N)=O)C(=O)[C@@]3(O)C(O)=C1C2=O [AS] | 56% |  | 30% |
| 1 µg/mL (≈ 1.95 µM) | > 64 µg/mL | CN(C)c1cc(C(=O)NC(C)(C)C)c(O)c2c1C[C@H]1C[C@H]3CC(O)=C(C(N)=O)C(=O)[C@@]3(O)C(O)=C1C2=O [AH] | 59% |  |  |
| 1 µg/mL (≈ 1.87 µM) | > 64 µg/mL | CN(C)c1cc(-c2ccccc2)c(O)c2c1C[C@H]1C[C@H]3[C@H](N(C)C)C(O)=C(C(N)=O)C(=O)[C@@]3(O)C(O)=C1C2=O [Compound A] | 42% |  |  |
| 1 µg/mL (≈ 2.03 µM) | > 64 µg/mL | CN(C)c1cc(-c2cccnc2)c(O)c2c1C[C@H]1C[C@H]3CC(O)=C(C(N)=O)C(=O)[C@@]3(O)C(O)=C1C2=O [AE] | 80% |  | 65% |
| 1 µg/mL (≈ 1.93 µM) | > 64 µg/mL | CN(C)c1cc(C(=O)c2ccccc2)c(O)c2c1C[C@H]1C[C@H]3CC(O)=C(C(N)=O)C(=O)[C@@]3(O)C(O)=C1C2=O [AZ] | 36% |  |  |
| 0.5 µg/mL (≈ 1.03 µM) | > 64 µg/mL | CCc1cc(N(C)C)c2c(c1O)C(=O)C1=C(O)[C@]3(O)C(=O)C(C(N)=O)=C(O)[C@@H](N(C)C)[C@@H]3C[C@@H]1C2 [H] | 41% |  |  |
| 0.5 µg/mL (≈ 1.06 µM) | 16 µg/mL (≈ 33.9 µM) | CCc1ccc2c(c1O)C(=O)C1=C(O)[C@]3(O)C(=O)C(C(N)=O)=C(O)[C@@H](N(C)C)[C@@H]3[C@@H](O)[C@@H]1[C@H]2C [G] | 55% |  |  |
| 0.5 µg/mL (≈ 0.953 µM) | > 64 µg/mL | CC(C)c1noc(-c2cc(N(C)C)c3c(c2O)C(=O)C2=C(O)[C@]4(O)C(=O)C(C(N)=O)=C(O)C[C@@H]4C[C@@H]2C3)n1 [AR] | 64% |  |  |
| 0.25 µg/mL (≈ 0.649 µM) | 64 µg/mL (≈ 166 µM) | Cc1ccc(O)c2c1C[C@H]1C[C@H]3CC(O)=C(C(N)=O)C(=O)[C@@]3(O)C(O)=C1C2=O [BA] | 34% |  |  |
| 0.25 µg/mL (≈ 0.502 µM) | > 64 µg/mL | CN(C)c1cc(-c2nccs2)c(O)c2c1C[C@H]1C[C@H]3CC(O)=C(C(N)=O)C(=O)[C@@]3(O)C(O)=C1C2=O [AJ] | 39% |  |  |
| 0.25 µg/mL (≈ 0.52 µM) | > 64 µg/mL | CN(C)c1cc(-c2ccco2)c(O)c2c1C[C@H]1C[C@H]3CC(O)=C(C(N)=O)C(=O)[C@@]3(O)C(O)=C1C2=O [AG] | 39% |  |  |
| 0.13 µg/mL (≈ 0.243 µM) | 64 µg/mL (≈ 120 µM) | CN(C)[C@@H]1C(O)=C(C(N)=O)C(=O)[C@@]2(O)C(O)=C3C(=O)c4c(O)ccc(-c5ccc6c(c5)OCO6)c4C[C@H]3C[C@@H]12 [B] | 23% |  |  |
| 0.06 µg/mL (≈ 0.131 µM) | 0.13 µg/mL (≈ 0.285 µM) | CC(=O)c1ccc(O)c2c1C[C@H]1C[C@H]3[C@H](N(C)C)C(O)=C(C(N)=O)C(=O)[C@@]3(O)C(O)=C1C2=O [C] | 62% |  | 62% |
